According to patent US8853424B2 (Japan Science and Technology Agency, priority 2008, dated 2014):

Experiments:
[1] = test system: Truncated N-terminal huntington 150 Q-EGFP-Neuron 2a cells; assay: Measurement of x-Fold (polyglutamine aggregation inhibitory activity); type: cell-based
Experimental: In the present invention, the polyglutamine aggregation inhibitory activity (x-Fold) can be measured, for example, by the method described in the Example.
The number of the aggregated cells, and the total number of cells were counted by Array Scan V T1 (manufactured by Cellomics, Pittuburg, USA), and the ratio of the aggregated cells to the total number of cells was determined (x-Fold). […]

[2] = test system: transglutaminase (TGase); assay: Measurement of TG (TGase inhibitory activity, monodansyl cadaverine / N,N-dimethylcasein fluorescence, FDSS 3000); type: biochemical
In short: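 Compound (1 μL of 10 mM stock) added to 0.1 mL reaction: 100 mM HEPES-NaOH pH 7.5, 1 mM CaCl2, 20 μM monodansyl cadaverine, 0.05 mg/mL N,N-dimethylcasein, 5 μg/mL TGase. Rate of fluorescence change at 340 nm measured; DMSO control set to 100; TG50 is the concentration halving activity.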

[3] = polyglutamine aggregation inhibitory activity, Table 1
[4] = ratio of aggregated cells to total number of cells, compound 20 μM, 20 hr, almost 1 without compound, smaller = stronger inhibition
[5] = TGase activity with compound (10 mM, 1 μL in 0.1 ml enzyme reaction solution), DMSO control taken as 100
[6] = TGase inhibitory activity value, Table 1
[7] = polyglutamine aggregation, Truncated N-terminal huntington 150 Q-EGFP-Neuron 2a cells
[8] = TGase inhibitory activity measurement, unit not given

Structure (SMILES): Cc1ccc(B(O)c2ccc(-c3ccc(B(O)c4ccc(C)cc4)cc3)cc2)cc1 [Example 363, 4,4′-(4-methylphenylhydroxyboryl)diphenyl]
- x-Fold [1, 3]: 0.92
- x-Fold [1, 4]: 0.92
- TGase activity remaining (% of DMSO control = 100) [2, 5]: 97
- TGase activity remaining (% of DMSO control = 100) [2, 6]: 97

Structure (SMILES): NC(=O)CCC(N)C(=O)OB(c1ccsc1)c1ccc2sc3ccc(B(OC(=O)C(N)CCC(N)=O)c4ccsc4)cc3c2c1 (stereo not shown) [Example 304, 2,8-di(3-thiophenylglutamine-O,N boryl)dibenzothiophene]
- x-Fold [1, 3]: 0.90
- x-Fold [1, 4]: 0.90
- TGase activity remaining (% of DMSO control = 100) [2, 5]: 47
- TGase activity remaining (% of DMSO control = 100) [2, 6]: 47

Structure (SMILES): CN(C)CCOB(c1ccc(Oc2ccc(B(OCCN(C)C)c3cccc4ccccc34)cc2)cc1)c1cccc2ccccc12 [Example 442, bis(4,4′-(naphthyldimethylaminoethoxyboryl)phenyl)ether]
- x-Fold [1, 3]: 0.92
- x-Fold [1, 7]: 0.58
- x-Fold [1, 4]: 0.58
- TGase activity remaining (% of DMSO control = 100) [2, 5]: 102
- TGase activity remaining (% of DMSO control = 100) [2, 8]: 102

Structure (SMILES): CCCCB(CCCC)OC(=O)C(N)Cc1ccccc1 (stereo not shown) [Example 493, dibutyl(phenylalanine-O,N)borane]
- x-Fold [1, 7]: 1.03
- x-Fold [1, 4]: 1.03
- TGase activity remaining (% of DMSO control = 100) [2, 5]: 106
- TGase activity remaining (% of DMSO control = 100) [2, 8]: 106

Structure (SMILES): NCCOB(c1ccc(F)c(F)c1)c1ccc(F)c(F)c1 [Example 87, 2-aminoethyl bis(3,4-difluorophenyl)borinate]
- x-Fold [1, 3]: 1.02
- x-Fold [1, 4]: 1.02
- TGase activity remaining (% of DMSO control = 100) [2, 5]: 91
- TGase activity remaining (% of DMSO control = 100) [2, 6]: 91

Structure (SMILES): Cc1ccc(B(O)c2ccc(COCc3cccc(B(O)c4ccc(C)c(Cl)c4)c3)cc2)cc1Cl [Example 341, (3-(3-chloro-4-methylphenylhydroxyboryl)benzyl)(4-(3-chloro-4-methylphenylhydroxyboryl)benzyl)ether]
- x-Fold [1, 4]: 1.04
- TGase activity remaining (% of DMSO control = 100) [2, 5]: 107

Structure (SMILES): OB(c1ccccc1)c1ccc2ccccc2c1-c1c(B(O)c2ccccc2)ccc2ccccc12 [Example 359, 2,2′-di(phenylhydroxyboryl)-1,1′-binaphthyl]
- x-Fold [1, 3]: 0.96
- x-Fold [1, 4]: 0.96
- TGase activity remaining (% of DMSO control = 100) [2, 5]: 139
- TGase activity remaining (% of DMSO control = 100) [2, 6]: 139

Structure (SMILES): CCN(CC)CC.CN(C)c1ccc2c(-c3ccc(NC(=S)NCCCCC(N)C(=O)OB(c4ccccc4)c4ccccc4)cc3C(=O)[O-])c3ccc(=[N+](C)C)cc-3oc2c1 (stereo not shown) [Example 176, diphenyl(tetramethylrhodamine 2,6-diaminocapronate-O,N)borane]
- x-Fold [1, 3]: 1.06
- x-Fold [1, 4]: 1.06
- TGase activity remaining (% of DMSO control = 100) [2, 5]: 47
- TGase activity remaining (% of DMSO control = 100) [2, 6]: 47

Structure (SMILES): OB(c1cccc(COCc2cccc(B(O)c3cccc4ccccc34)c2)c1)c1cccc2ccccc12 [Example 347, bis(3-(1′-naphthylhydroxyboryl)benzyl)ether]
- x-Fold [1, 4]: 0.90
- TGase activity remaining (% of DMSO control = 100) [2, 5]: 104

Structure (SMILES): NC(=O)CCC(N)C(=O)OB(c1ccccc1)c1ccccc1 (stereo not shown) [Example 276, diphenyl(glutaminate-O,N)borane]
- x-Fold ([1]; polyglutamine aggregation inhibitory activity, Table 1, listed as 854): 0.8
- x-Fold [1, 4]: 0.8
- TGase activity remaining (% of DMSO control = 100) [2, 5]: 105
- TGase activity remaining (% of DMSO control = 100) ([2]; TGase inhibitory activity value, Table 1, listed as 854): 105

Structure (SMILES): OB(c1ccccc1)c1ccc(B(O)c2ccccc2)o1 [Example 383, bis(2,5-(phenylhydroxyboryl))furan]
- x-Fold [1, 3]: 0.92
- x-Fold [1, 4]: 0.92
- TGase activity remaining (% of DMSO control = 100) [2, 5]: 103
- TGase activity remaining (% of DMSO control = 100) [2, 6]: 103

Structure (SMILES): OB(c1cccc(Cl)c1)c1cccc(Cl)c1 [Example 241, di(3-chlorophenyl)borinic acid]
- x-Fold [1, 4]: 1.10
- TGase activity remaining (% of DMSO control = 100) [2, 5]: 67

Structure (SMILES): Cc1ccc(B(OCCN(C)C)c2ccc(Oc3ccc(B(OCCN(C)C)c4ccc(C)cc4)cc3)cc2)cc1 [Example 446, bis(4,4′-(tolyldimethylaminoethoxyboryl)phenyl)ether]
- x-Fold [1, 7]: 0.85
- x-Fold [1, 4]: 0.85
- TGase activity remaining (% of DMSO control = 100) [2, 5]: 73
- TGase activity remaining (% of DMSO control = 100) [2, 8]: 73

Structure (SMILES): CN(C)CCOB(c1ccc(Cl)c(F)c1)c1ccc(Cl)c(F)c1 [Example 94, dimethylaminoethyl bis(4-chloro-3-fluorophenyl)borinate]
- x-Fold [1, 3]: 0.95
- x-Fold [1, 4]: 0.95
- TGase activity remaining (% of DMSO control = 100) [2, 5]: 114
- TGase activity remaining (% of DMSO control = 100) [2, 6]: 114

Structure (SMILES): CC(O)C(N)C(=O)OB(c1ccccc1)c1ccccc1 (stereo not shown) [Example 265, diphenyl(threoninate-O,N)borane]
- x-Fold [1, 3]: 0.94
- x-Fold [1, 4]: 0.94
- TGase activity remaining (% of DMSO control = 100) [2, 5]: 112
- TGase activity remaining (% of DMSO control = 100) [2, 6]: 112

Structure (SMILES): OB(c1cc(F)cc(Cl)c1)c1cc(F)cc(Cl)c1 [Example 97, bis(3-chloro-5-fluorophenyl)borinic acid]
- x-Fold [1, 3]: 0.72
- x-Fold [1, 4]: 0.72
- TGase activity remaining (% of DMSO control = 100) [2, 5]: 122
- TGase activity remaining (% of DMSO control = 100) [2, 6]: 122

Structure (SMILES): c1ccc(B(OCCN2CCCCC2)c2ccc(COCc3ccc(B(OCCN4CCCCC4)c4ccccc4)cc3)cc2)cc1 [Example 459, bis(4,4′-(phenyl-1-piperidylethoxyboryl)benzyl)ether]
- x-Fold [1, 7]: 1.03
- x-Fold [1, 4]: 1.03
- TGase activity remaining (% of DMSO control = 100) [2, 5]: 80
- TGase activity remaining (% of DMSO control = 100) [2, 8]: 80

Structure (SMILES): c1ccc(B(OCCN2CCN(CCOB(c3ccccc3)c3ccccc3)CC2)c2ccccc2)cc1 [Example 239, bis(diphenyl piperazino-O,O-ethoxyborane)]
- x-Fold [1, 4]: 0.94
- TGase activity remaining (% of DMSO control = 100) [2, 5]: 126

Structure (SMILES): Cc1ccc(B(O)c2ccc(Oc3ccc(B(O)c4ccc(C)cc4)cc3)cc2)cc1 [Example 440, bis(4,4′-(tolylhydroxyboryl)phenyl)ether]
- x-Fold [1, 7]: 0.69
- x-Fold [1, 4]: 0.69
- TGase activity remaining (% of DMSO control = 100) [2, 5]: 63
- TGase activity remaining (% of DMSO control = 100) [2, 8]: 63

Structure (SMILES): NCCOB(c1cc(F)c(F)c(F)c1)c1cc(F)c(F)c(F)c1 [Example 89, aminoethyl bis(3,4,5-trifluorophenyl)borinate]
- x-Fold [1, 3]: 0.94
- x-Fold [1, 4]: 0.94
- TGase activity remaining (% of DMSO control = 100) [2, 5]: 80
- TGase activity remaining (% of DMSO control = 100) [2, 6]: 80

Structure (SMILES): NCCOB(c1ccc(C(F)(F)F)cc1)c1c2ccccc2c(B(OCCN)c2ccc(C(F)(F)F)cc2)c2ccccc12 [Example 375]
- x-Fold [1, 3]: 1.05
- x-Fold [1, 4]: 1.05
- TGase activity remaining (% of DMSO control = 100) [2, 5]: 44
- TGase activity remaining (% of DMSO control = 100) [2, 6]: 44

Structure (SMILES): c1ccc(CNCCOB(c2ccccc2)c2cccc(COCc3cccc(B(OCCNCc4ccccc4)c4ccccc4)c3)c2)cc1 [Example 199, bis(3,3′-(phenylbenzylaminoethoxyboryl)benzyl)ether]
- x-Fold [1, 3]: 0.90
- x-Fold [1, 4]: 0.90
- TGase activity remaining (% of DMSO control = 100) [2, 5]: 3
- TGase activity remaining (% of DMSO control = 100) [2, 6]: 3

Structure (SMILES): c1ccc(B2OCCN3CCN(CCOB(c4ccccc4)c4ccc(cc4)Oc4ccc2cc4)CC3)cc1 [Example 196, 4,4′-(phenylpiperazino-O,O-ethoxyboryl)phenylether]
- x-Fold [1, 3]: 0.90
- x-Fold [1, 4]: 0.90
- TGase activity remaining (% of DMSO control = 100) [2, 5]: 117
- TGase activity remaining (% of DMSO control = 100) [2, 6]: 117

Structure (SMILES): NC(=O)C1NCCNC1C(=O)OB(c1ccccc1)c1ccccc1 (stereo not shown) [Example 193, diphenyl(2-piperazine-3-carboxyamide-carboxy)borane]
- x-Fold [1, 3]: 1.03
- x-Fold [1, 4]: 1.03
- TGase activity remaining (% of DMSO control = 100) [2, 5]: 92
- TGase activity remaining (% of DMSO control = 100) [2, 6]: 92

Structure (SMILES): c1ccc(B(OCc2ccccn2)c2ccc(COCc3ccc(B(OCc4ccccn4)c4ccccc4)cc3)cc2)cc1 [Example 184, di(4-(phenyl-2-pyridylmethoxyboryl)benzyl)ether]
- x-Fold [1, 3]: 0.95
- x-Fold [1, 4]: 0.95
- TGase activity remaining (% of DMSO control = 100) [2, 5]: 94
- TGase activity remaining (% of DMSO control = 100) [2, 6]: 94

Structure (SMILES): OB(c1ccc(COCc2cccc(B(O)c3cc(F)c(F)c(F)c3)c2)cc1)c1cc(F)c(F)c(F)c1 [Example 342, (3-(3′,4′,5′-trifluorophenylhydroxyboryl)benzyl)(4-(3′,4′,5′-trifluorophenylhydroxyboryl)benzyl)ether]
- x-Fold [1, 3]: 1.02
- x-Fold [1, 4]: 1.02
- TGase activity remaining (% of DMSO control = 100) [2, 5]: 114
- TGase activity remaining (% of DMSO control = 100) [2, 6]: 114

Structure (SMILES): NC(=O)CC(N)C(=O)OB(c1ccccc1)c1ccccc1 (stereo not shown) [Example 136, diphenyl(asparaginate-O,N)borane]
- x-Fold ([1]; polyglutamine aggregation inhibitory activity, Table 1, listed as 871): 0.98
- x-Fold [1, 4]: 0.98
- TGase activity remaining (% of DMSO control = 100) [2, 5]: 96
- TGase activity remaining (% of DMSO control = 100) ([2]; TGase inhibitory activity value, Table 1, listed as 871): 96

Structure (SMILES): NCC(CN)OB(c1ccc(Cl)c(F)c1)c1ccc(Cl)c(F)c1 [Example 235]
- x-Fold [1, 3]: 1.03
- x-Fold [1, 4]: 1.03
- TGase activity remaining (% of DMSO control = 100) [2, 5]: 80
- TGase activity remaining (% of DMSO control = 100) [2, 6]: 80

Structure (SMILES): COCOCc1ccc(B(OCCN(C)C)c2ccc(Oc3ccc(B(OCCN(C)C)c4ccccc4)cc3)cc2)cc1 [Example 167, (4-(phenyl-dimethylaminoethoxyboryl)phenyl)-(4′-(methoxymethoxymethylphenyl-dimethylaminoethoxyboryl)phenyl)ether]
- x-Fold [1, 3]: 0.71
- x-Fold [1, 4]: 0.71
- TGase activity remaining (% of DMSO control = 100) [2, 5]: 21
- TGase activity remaining (% of DMSO control = 100) [2, 6]: 21
